Here are results for 42 compounds from ChEMBL document CHEMBL3045254, “Molecular modeling of the Toxoplasma gondii adenosine kinase inhibitors” (Med Chem Res, 2012).

A word on the Ki: it is the equilibrium dissociation constant of an inhibitor or competing ligand from its target. The low end stands for higher affinity, the high end for lower affinity.

This assay has as its target T1, Adenosine kinase (Toxoplasma gondii, UniProt Q9TVW2).
T1 sequence (Q9TVW2 whole entry): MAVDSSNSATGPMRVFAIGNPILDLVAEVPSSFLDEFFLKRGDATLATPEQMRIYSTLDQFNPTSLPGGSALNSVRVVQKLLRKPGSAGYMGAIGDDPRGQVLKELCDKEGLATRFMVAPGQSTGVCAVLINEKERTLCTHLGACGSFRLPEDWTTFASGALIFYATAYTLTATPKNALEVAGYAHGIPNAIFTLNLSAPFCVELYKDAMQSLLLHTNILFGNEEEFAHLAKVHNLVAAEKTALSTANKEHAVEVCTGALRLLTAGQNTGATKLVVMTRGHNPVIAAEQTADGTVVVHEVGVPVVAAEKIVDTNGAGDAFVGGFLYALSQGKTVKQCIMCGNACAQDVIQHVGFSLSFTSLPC
The assay can be described thus: Inhibition of Toxoplasma gondii adenosine kinase.

With `N#Cc1ccc(CNc2ncnc3c2ncn3[C@@H]2O[C@H](CO)[C@@H](O)[C@H]2O)c(Cl)c1`, the IC50 was 21.1 µM (read-out: IC50) and 10.4 µM (read-out: pIC50 (converted)).
`OC[C@H]1O[C@@H](n2cnc3c(SCc4ccc(Br)cc4)ncnc32)[C@H](O)[C@@H]1O` gave a Ki of 7.5 µM. For the same compound, under “read-out: IC50”, the IC50 is 14.3 µM.
`OC[C@H]1O[C@@H](n2cnc3c(SCc4ccc(Cl)c(Cl)c4)ncnc32)[C@H](O)[C@@H]1O` displayed a Ki of 2.5 µM. Further, the IC50 (read-out: IC50) was 10.4 µM. For the same compound, the IC50 (read-out: pIC50 (converted)) is 21.1 µM.
Take `OC[C@H]1O[C@@H](n2cnc3c(NCc4ccc(C(F)(F)F)cc4)ncnc32)[C@H](O)[C@@H]1O`: the IC50 (read-out: IC50) is 22.9 µM.
`Cc1cc(C)c(CSc2ncnc3c2ncn3[C@@H]2O[C@H](CO)[C@@H](O)[C@H]2O)c(C)c1`: the Ki worked out at 150 µM. Besides, the IC50 (read-out: IC50) was determined as 31.1 µM.
In the same order, the values of `OC[C@H]1O[C@@H](n2cnc3c(SCc4cccc(C(F)(F)F)c4)ncnc32)[C@H](O)[C@@H]1O` are 2.9 µM and 8.7 µM.
Take `OC[C@H]1O[C@@H](n2cnc3c(SCc4ccc(OC(F)(F)F)cc4)ncnc32)[C@H](O)[C@@H]1O`: the Ki is 141 µM. Further, the IC50 (read-out: IC50) worked out at 24.8 µM.
For the compound `OC[C@H]1O[C@@H](n2cnc3c(NCc4cccc(F)c4)ncnc32)[C@H](O)[C@@H]1O`, the IC50 (read-out: IC50) is 23.2 µM.
In turn, `CC(C)(C)c1ccc(CSc2ncnc3c2ncn3[C@@H]2O[C@H](CO)[C@@H](O)[C@H]2O)cc1` returned a Ki of 113 µM. Moreover, under “read-out: IC50”, the IC50 was 23.3 µM.
For `CC(=O)Oc1ccc(CSc2ncnc3c2ncn3[C@@H]2O[C@H](CO)[C@@H](O)[C@H]2O)cc1` [P-ACETOXY-6-BENZYLTHIOINOSINE] the same measures were 96.1 µM and 15 µM.
In the case of `OC[C@H]1O[C@@H](n2cnc3c(SCc4ccccc4)ncnc32)[C@H](O)[C@@H]1O` [6-BENZYLTHIOINOSINE], the Ki was found to be 2.4 µM. In addition, under “read-out: IC50”, the IC50 was determined as 9.3 µM.
With `CC(C)c1ccc(CNc2ncnc3c2ncn3[C@@H]2O[C@H](CO)[C@@H](O)[C@H]2O)cc1` [P-ISOPROPYL-N6-BENZYLADENOSINE], the IC50 (read-out: IC50) was determined as 22 µM.
Compound `Cc1ccc(CSc2ncnc3c2ncn3[C@@H]2O[C@H](CO)[C@@H](O)[C@H]2O)cc1` displayed a Ki of 3.3 µM. For the setting “read-out: IC50”, the IC50 was 7.8 µM.
For `OC[C@H]1O[C@@H](n2cnc3c(SCc4c(F)cccc4Cl)ncnc32)[C@H](O)[C@@H]1O` the same measures were 37.7 µM and 8.7 µM.
For the compound `OC[C@H]1O[C@@H](n2cnc3c(NCc4ccccc4)ncnc32)[C@H](O)[C@@H]1O` [N6-BENZYLADENOSINE], the IC50 (read-out: pIC50 (converted)) was 794 µM.
For `Cc1cccc(CNc2ncnc3c2ncn3[C@@H]2O[C@H](CO)[C@@H](O)[C@H]2O)c1`, under “read-out: IC50”, the IC50 was 8.5 µM.
For the compound `OC[C@H]1O[C@@H](n2cnc3c(SCc4ccc(Cl)cc4Cl)ncnc32)[C@H](O)[C@@H]1O`, affinity was put at a Ki of 0.7 µM. The IC50 (read-out: IC50) is 7.3 µM.
On to `COc1ccc(CSc2ncnc3c2ncn3[C@@H]2O[C@H](CO)[C@@H](O)[C@H]2O)cc1`, for which the Ki amounted to 2.6 µM. In addition, the IC50 (read-out: IC50) was 3.5 µM.
In the case of `COc1ccccc1CNc1ncnc2c1ncn2[C@@H]1O[C@H](CO)[C@@H](O)[C@H]1O`, where the note is “read-out: IC50”, the IC50 is 8.7 µM.
Same read-out and setting: the same measure for `COc1ccc(CNc2ncnc3c2ncn3[C@@H]2O[C@H](CO)[C@@H](O)[C@H]2O)c(F)c1`: 9.5 µM; for `OC[C@H]1O[C@@H](n2cnc3c(NCc4ccc(F)cc4F)ncnc32)[C@H](O)[C@@H]1O`: 8.2 µM.
The same measure, in the same setting: the figure for `OC[C@H]1O[C@@H](n2cnc3c(NCc4ccccc4F)ncnc32)[C@H](O)[C@@H]1O` is 37.8 µM.
On to `COc1ccc(CNc2ncnc3c2ncn3[C@@H]2O[C@H](CO)[C@@H](O)[C@H]2O)cc1`, for which the IC50 was 7.5 µM (read-out: IC50) and 7.19 µM (read-out: pIC50 (converted)).
Turning to `O=[N+]([O-])c1ccc(CSc2ncnc3c2ncn3[C@@H]2O[C@H](CO)[C@@H](O)[C@H]2O)cc1` [NITROBENZYLMERCAPTOPURINE RIBONUCLEOSIDE], the Ki turned out to be 1.1 µM. Also, the IC50 (read-out: IC50) was 12 µM.
As to `O=[N+]([O-])c1ccccc1CNc1ncnc2c1ncn2[C@@H]1O[C@H](CO)[C@@H](O)[C@H]1O` [O-NITRO-N6-BENZYLADENOSINE], where the note is “read-out: IC50”, the IC50 was found to be 15 µM.
`OC[C@H]1O[C@@H](n2cnc3c(NCc4ccc(Cl)cc4)ncnc32)[C@H](O)[C@@H]1O`: the IC50 (read-out: IC50) turned out to be 25.8 µM.
In the case of `OC[C@H]1O[C@@H](n2cnc3c(NCc4ccc(Cl)c(Cl)c4)ncnc32)[C@H](O)[C@@H]1O`, the IC50 (read-out: IC50) was determined as 14.3 µM.
The same measure, in the same setting: the figure for `N#Cc1ccc(CNc2ncnc3c2ncn3[C@@H]2O[C@H](CO)[C@@H](O)[C@H]2O)cc1` [P-CYANO-N6-BENZYLADENOSINE] is 8.3 µM.
With `OC[C@H]1O[C@@H](n2cnc3c(SCc4ccccc4Cl)ncnc32)[C@H](O)[C@@H]1O`, affinity was put at a Ki of 1.4 µM. Under “read-out: IC50”, the IC50 was 6.7 µM.
For `O=[N+]([O-])c1cccc(CSc2ncnc3c2ncn3[C@@H]2O[C@H](CO)[C@@H](O)[C@H]2O)c1` the same measures were 3 µM and 6.2 µM.
In the same order, the values of `Cc1ccccc1CSc1ncnc2c1ncn2[C@@H]1O[C@H](CO)[C@@H](O)[C@H]1O` are 1.5 µM and 7.7 µM.
In the case of `OC[C@H]1O[C@@H](n2cnc3c(NCc4ccc(Cl)cc4Cl)ncnc32)[C@H](O)[C@@H]1O`, the IC50 (read-out: IC50) is 9.3 µM.
`N#Cc1ccc(CSc2ncnc3c2ncn3[C@@H]2O[C@H](CO)[C@@H](O)[C@H]2O)cc1` came in with a Ki of 0.9 µM. Moreover, the IC50 (read-out: IC50) was found to be 4.3 µM.
In the case of `Cc1cccc(CSc2ncnc3c2ncn3[C@@H]2O[C@H](CO)[C@@H](O)[C@H]2O)c1`, the Ki came to 1.3 µM. The IC50 (read-out: IC50) came to 8.2 µM.
For `COc1ccc(CNc2ncnc3c2ncn3[C@@H]2O[C@H](CO)[C@@H](O)[C@H]2O)c(OC)c1`, the IC50 (read-out: IC50) turned out to be 8.7 µM.
For the compound `OC[C@H]1O[C@@H](n2cnc3c(NCc4ccccc4Cl)ncnc32)[C@H](O)[C@@H]1O`, under “read-out: IC50”, the IC50 came out at 10.6 µM.
Same read-out and setting: the same measure for `OC[C@H]1O[C@@H](n2cnc3c(NCc4ccc(F)cc4)ncnc32)[C@H](O)[C@@H]1O`: 20.6 µM; for `C=Cc1ccc(CNc2ncnc3c2ncn3[C@@H]2O[C@H](CO)[C@@H](O)[C@H]2O)cc1` [P-VINYL-N6-BENZYLADENOSINE]: 26.2 µM; for `OC[C@H]1O[C@@H](n2cnc3c(SCc4ccccc4F)ncnc32)[C@H](O)[C@@H]1O`: 8.2 µM.
Compound `OC[C@H]1O[C@@H](n2cnc3c(SCc4ccc(F)cc4)ncnc32)[C@H](O)[C@@H]1O` showed a Ki of 1.2 µM. Also, the IC50 (read-out: IC50) was determined as 10.3 µM.
`Cc1ccc(CNc2ncnc3c2ncn3[C@@H]2O[C@H](CO)[C@@H](O)[C@H]2O)cc1`: where the note is “read-out: IC50”, the IC50 is 10.5 µM.
Compound `OC[C@H]1O[C@@H](n2cnc3c(SCc4ccc(Cl)cc4)ncnc32)[C@H](O)[C@@H]1O` showed a Ki of 2.1 µM. The IC50 (read-out: IC50) is 8.11 µM.
